pEC50, pIC50: −log10 of the molar value.

Six molecules from US10344026B2, “Compositions and methods of targeting mutant K-ras” (NANTBIO, INC., priority 2017, dated 2019) can be followed below.

What all share (type): cell-based
In test [1] the test system is phospho-Akt in A375 (Wild-type). Put plainly: In-Cell Western phospho-Akt, A375. The note with it: Homo sapiens, A-375, 1 h; A375, one hour treatment; read-out: In-Cell Western A375 (Wild-type) Akt (P). As to the method: (§1) In-cell phosphorylation assays for Erk and Akt were performed on several of the compounds and exemplary results are shown in Table 3 below using HCC827 and A375 cell lines for wild type K-Ras and Panc1 and Panc10.05 cell lines for G12D K-Ras mutants. Results are expressed in μM and corresponding structures are shown in FIGS. 2A-2G and Examples 1-152, above.
(§2) Cells are seeded in complete medium into black sided, clear-bottom 384-well microplates at 3000 cells/[…]/well. Plates are returned to 37° C. CO2 incubator for 18 hr. Drug is made as 200× in DMSO and diluted into medium to 10×. To each well is added 4 ul 10× test article or controls, and plates are returned to the incubator. Final assay DMSO concentration is 0.5%. After one hour, cells are fixed in formaldehyde, rinsed & permeabilized with triton X-100, and blocked with BSA/Goat serum blocking solution. Primary phospho-Akt and phospho-ERK antibodies are added and plates are incubated overnight at 4° C. Plates are rinsed with Tween-20 wash buffer and secondary antibody (Goat anti-rabbit, Thermofisher) is added. After 2 hours, plates are rinsed in Tween-20 wash buffer, and then PBS. Plates are imaged on the Celigo (Nexcelom) and cellular fluorescence is quantitated. Full inhibition of phospho-Akt is achieved with 1 uM BEZ235 (Sellekchem), while full inhibition of phospho-ERK is achieved with 1 uM MEK Inhibitor II Calbiochem). EC50 values are calculated using Graphpad Prism.

The target in test [2] is T1, K-Ras G12D (Homo sapiens, UniProt P01116, G12D).
T1 construct: expressed in transfected cells; host or cells: 293H cells
Description: G-LISA Ras activation, 293H cells transfected with G12D mutant. As to conditions: compound 1 hour. The procedure, abridged:
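293H cells were transfected with wild-type or mutant Ras plasmid (Lipofectamine 3000), then exposed next day to compounds at 3.125-25 μM for 1 hour. Wild-type transfectants received 100 ng/ml EGF for 2 minutes before ice-cold PBS wash, lysis on ice and G-LISA readout of active Ras.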

Test [3] deals with phospho-ERK in Panc1 (G12D). Description: In-Cell Western phospho-ERK, Panc1. The note with it: Homo sapiens, PANC-1, 1 h; Panc1, one hour treatment; read-out: In-Cell Western Panc1 (G12D) Erk (P). The method in brief: (§3)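 3000 cells/well, 18 hr pre-incubation; 1 hr compound exposure, 0.5% DMSO final. Formaldehyde fix, Triton permeabilization, primary Ab overnight 4° C, secondary 2 hr. Fluorescence imaging; EC50.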

Test [4] relates to phospho-ERK in A375 (Wild-type). Put plainly: In-Cell Western phospho-ERK, A375. The note with it: Homo sapiens, A-375, 1 h; A375, one hour treatment; read-out: In-Cell Western A375 (Wild-type) Erk (P). As to the method: as §1, §2
The test system of test [5] is A375 (K-Ras wild type cell line). Put plainly: Viability assay (CellTiterBlue, 72 hr) A375. The note with it: Homo sapiens, A-375, GI50, CellTiterBlue. As to the method:
Viability assays were performed on exemplary compounds and Table 2 below lists exemplary results for selected compounds tested on K-Ras wild type cell lines (Ishikawa, U87-MG, HCC827, and A375) and various K-Ras mutant cell lines (Panc1-G12D; Panc10.05-G12D; HCT116-G31D). Results are expressed in μM and corresponding structures are shown in FIGS. 2A-2G and Examples 1-152, above.
Cells are counted and seeded at 1000 cells/36 ul medium/well into 384-well microplates. Cells are returned to 37° C. CO2 incubator for 18 hr. Drug is made as 200× in DMSO and diluted into medium to 10×. To each well is added 4 ul 10× drug, and plates are returned to the incubator. Final assay DMSO concentration is 0.5%. After 72 hr, 8 ul CellTiterBlue (Promega) is added to each well. After 3 hr, fluorescence (Ex550/Em590) is determined on the Victor Plate Reader (Perkin Elmer). Assay range is determined by DMSO control (100% viability) and 100 uM tamoxifen (0% viability). GI50 values are calculated using Graphpad Prism.

For test [6], the system named is phospho-Akt in Panc1 (G12D). Put plainly: In-Cell Western phospho-Akt, Panc1. As to conditions: Homo sapiens, PANC-1, 1 h; Panc1, one hour treatment; read-out: In-Cell Western Panc1 (G12D) Akt (P). The procedure, abridged:
as §3

Test [7] concerns Ishikawa (K-Ras wild type cell line). Put plainly: Viability assay (CellTiterBlue, 72 hr) Ishikawa. As to conditions: Homo sapiens, GI50, CellTiterBlue, Ishikawa K-Ras wild-type. The method in brief: (§4)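 Each line was plated at 1000 cells per well and incubated for 72 hr with compound after an 18 hr settling period. CellTiterBlue fluorescence measured the result, and GI50 was fitted relative to DMSO and tamoxifen controls.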

The subject of test [8] is Panc1-G12D. Description: Viability assay (CellTiterBlue, 72 hr) Panc1. The note with it: Homo sapiens, PANC-1, GI50, CellTiterBlue, Panc1 K-Ras G12D, read-out: 72 hr Cell Viability Panc1 (G12D). The procedure, abridged:
as §4

Test [9] concerns phospho-Akt in Panc10.05 (G12D). Put plainly: In-Cell Western phospho-Akt, Panc10.05. As to conditions: Homo sapiens, Panc1005, 1 h; Panc10.05, one hour treatment; read-out: In-Cell Western Panc10.05 (G12D) Akt (P). The method in brief: as §3
Test [10] concerns HCT116-G31D. Description: Viability assay (CellTiterBlue, 72 hr) HCT116. As to conditions: Homo sapiens, HCT-116, GI50, CellTiterBlue, HCT116 K-Ras G13D, read-out: 72 hr Cell Viability HCT116 (G13D). The procedure, abridged: as §4
Test [11] has as its system phospho-ERK in Panc10.05 (G12D). Put plainly: In-Cell Western phospho-ERK, Panc10.05. The note with it: Homo sapiens, Panc1005, 1 h; Panc10.05, one hour treatment; read-out: In-Cell Western Panc10.05 (G12D) Erk (P). The procedure, abridged: as §3
Test [12] relates to phospho-ERK in HCC827 (Wild-type). Description: In-Cell Western phospho-ERK, HCC827. As to conditions: Homo sapiens, 1 h; HCC827, one hour treatment; read-out: In-Cell Western HCC827 (Wild-type) Erk (P). The method, then: as §1, §2
Test [13] deals with HCC827 (K-Ras wild type cell line). Put plainly: Viability assay (CellTiterBlue, 72 hr) HCC827. The note with it: Homo sapiens, GI50, CellTiterBlue, HCC827 K-Ras wild-type. The method in brief: as §4
The subject of test [14] is Panc10.05-G12D. Put plainly: Viability assay (CellTiterBlue, 72 hr) Panc10.05. The note with it: Homo sapiens, Panc1005, GI50, CellTiterBlue, Panc10.05 K-Ras G12D, read-out: 72 hr Cell Viability Panc10.05 (G12D). The method in brief:
as §4

The test system of test [15] is U87-MG (K-Ras wild type cell line). Put plainly: Viability assay (CellTiterBlue, 72 hr) U87-MG. The note with it: Homo sapiens, U-87 MG, GI50, CellTiterBlue, U87-MG K-Ras wild-type. The procedure, abridged: as §4

T1 sequence (P01116 whole entry G12D): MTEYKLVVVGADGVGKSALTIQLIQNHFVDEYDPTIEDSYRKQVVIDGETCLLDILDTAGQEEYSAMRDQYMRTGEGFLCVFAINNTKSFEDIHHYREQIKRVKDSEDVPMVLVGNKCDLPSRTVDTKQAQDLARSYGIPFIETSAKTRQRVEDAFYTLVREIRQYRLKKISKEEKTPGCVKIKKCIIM

On to `Cc1nc(C2CCCCC2)oc1C(=O)Nc1nc(-c2ccc3c(c2)CCC(=O)N3Cc2cccnc2)cs1` [Compound 101, 2-cyclohexyl-4-methyl-N-(4-(2-oxo-1-(pyridin-3-ylmethyl)-1,2,3,4-tetrahydroquinolin-6-yl)thiazole-2-yl)oxazole-5-carboxamide], for which the pEC50 is less than 4.60 in test [1]; 4.74 in test [3]; less than 4.60 in test [4]; less than 4.60 in test [6]; less than 4.60 in test [9]; 5.52 in test [11]. Further, the pEC50 in [12] was 4.85. In [2], the midpoint of inhibition, the IC50, lay at 9.3 µM. Besides, the pIC50 in test [5] was 5.40; in [7], 5.70; in test [8] it was 5.70; in test [10] it was 4.85; in [13] it was less than 4.60; in test [14], 5.40. Also, in test [15], the pIC50 is less than 4.60.
Regarding `Cc1nc(C)c(C(=O)Nc2nc(-c3ccc4c(c3)CCC(=O)N4Cc3cccnc3)cs2)s1` [Compound 105, 2,4-dimethyl-N-(4-(2-oxo-1-(pyridin-3-ylmethyl)-1,2,3,4-tetrahydroquinolin-6-yl)thiazol-2-yl)thiazole-5-carboxamide], the pEC50 in test [1] was less than 4.60; in test [3], 5.30; in [4], less than 4.60; in test [6] it was less than 4.60; in [9], less than 4.60; in [11] it was 4.96. In addition, the pEC50 in test [12] was 4.72. In addition, in test [2], the IC50 was found to be 10.4 µM. Further, the pIC50 in test [5] was 4.60; in test [7] it was less than 4.60; in test [8], 4.92; in [10], 4.89; in test [13], less than 4.60; in [14], 5.70. In [15], the pIC50 was less than 4.60.
On to `Cn1nc(C(F)F)cc1C(=O)Nc1nc(-c2ccc3c(c2)CCC(=O)N3)cs1` [Compound 49, 3-(difluoromethyl)-1-methyl-N-(4-(2-oxo-1,2,3,4-tetrahydroquinolin-6-yl)thiazol-2-yl)-1H-pyrazole-5-carboxamide], for which the pEC50 in test [1] is less than 4.60; in test [3] it was less than 4.60; in [4], less than 4.60; in [6] it was less than 4.60; in [9] it was 4.70; in test [11], 4.72. For the same molecule, in test [12], the pEC50 was less than 4.60. In [2], this molecule displayed a concentration for half-maximal inhibition (IC50) of 12.3 µM. For the same molecule, the pIC50 in test [5], in [7], in test [8], in test [10], in test [13] and in test [14] was less than 4.60 each time. In addition, the pIC50 in test [15] is less than 4.60.
With `CC(C)c1cc(C(=O)Nc2nc(-c3ccc4c(c3)CCC(=O)N4)cs2)n(C)n1` [Compound 44, 3-isopropyl-1-methyl-N-(4-(2-oxo-1,2,3,4-tetrahydroquinolin-6-yl)thiazol-2-yl)-1H-pyrazole-5-carboxamide], the pEC50 in [1], in [3], in [4], in test [6], in test [9] and in [11] was less than 4.60 throughout. Further, the pEC50 in test [12] is less than 4.60. Further, 4 µM corresponded to half-maximal inhibition in test [2] (IC50). The pIC50 was less than 4.60 in test [5]; less than 4.60 in test [7]; less than 4.60 in test [8]; less than 4.60 in test [10]; less than 4.60 in test [13]; 5.70 in test [14]. Besides, in [15], the pIC50 is less than 4.60.
For `CCn1nccc1C(=O)Nc1nc(-c2ccc3c(c2)CCC(=O)N3)cs1` [Compound 46, 1-ethyl-N-(4-(2-oxo-1,2,3,4-tetrahydroquinolin-6-yl)thiazol-2-yl)-1H-pyrazole-5-carboxamide], the pEC50 is less than 4.60 in test [1]; less than 4.60 in [3]; less than 4.60 in test [4]; less than 4.60 in test [6]; 4.89 in [9]; 4.96 in test [11]. The pEC50 in [12] is less than 4.60. The molecule further returned an IC50 in test [2] of 22.5 µM. Also, the pIC50 in test [5] was less than 4.60; in [7], less than 4.60; in [8], less than 4.60; in test [10] it was less than 4.60; in test [13] it was less than 4.60; in [14] it was 4.96. In test [15], this molecule gave a pIC50 of less than 4.60.
With `CCc1nc(C)c(C(=O)Nc2nc(-c3ccc4c(c3)CCC(=O)N4C(C)c3cccnc3)cs2)o1` (stereo not drawn) [Compound 102, 2-ethyl-4-methyl-N-(4-(2-oxo-1-(1-(pyridin-3-yl)ethyl)-1,2,3,4-tetrahydroquinolin-6-yl)thiazol-2-yl)oxazole-5-carboxamide], the pEC50 is less than 4.60 in [1]; 5.10 in test [3]; 4.59 in test [4]; less than 4.60 in test [6]; less than 4.60 in [9]; 4.72 in [11]. For the same molecule, in test [12], the pEC50 was 4.96. Besides, in [2], the IC50 is 8.2 µM. Besides, the pIC50 in test [5] was less than 4.60; in test [7], less than 4.60; in test [8] it was less than 4.60; in test [10], 4.89; in test [13] it was less than 4.60; in [14] it was 5.30. Also, in test [15], the pIC50 was less than 4.60.
